In patent US20250388574A1, “HETEROCYCLIC COMPOUNDS AS TRIGGERING RECEPTOR EXPRESSED ON MYELOID CELLS 2 AGONISTS AND METHODS OF USE” (AMGEN INC., priority 2020, published 2025):

Target: hTREM2 (Homo sapiens, UniProt Q9NZC2)
Test: Phospho-Syk AlphaScreen/AlphaLISA assay in TREM2 and DAP12 overexpressing HEK293 cells (Example A1)
Type: cell-based
Design: expressed in transfected cells
Settings: HEK293 cells; for EC50: read-out: hTREM2 EC50
In short: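 Agonism read as Syk phosphorylation: compounds in 1% DMSO applied 45 min at room temperature to TREM2/DAP12-HEK293 cells after 20 h culture. Lysis buffer with phosphatase inhibitors and anti-phospho-Syk plus biotinylated anti-Syk antibodies, then AlphaLISA beads (680 nm excitation); percent of control computed from antibody/isotype wells, curves fitted sigmoidally.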

hTREM2, sequence (Q9NZC2 19-230): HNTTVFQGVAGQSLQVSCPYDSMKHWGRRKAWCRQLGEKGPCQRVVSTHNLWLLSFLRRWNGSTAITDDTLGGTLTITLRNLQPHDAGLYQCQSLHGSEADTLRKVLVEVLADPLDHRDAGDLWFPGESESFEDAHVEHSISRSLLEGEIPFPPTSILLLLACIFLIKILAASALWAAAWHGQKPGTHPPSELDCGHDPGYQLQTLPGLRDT
hTREM2, sequence (O43914 22-113 partner): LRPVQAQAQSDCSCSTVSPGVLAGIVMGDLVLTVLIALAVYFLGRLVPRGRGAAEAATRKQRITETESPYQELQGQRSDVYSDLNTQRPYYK

| Emax | EC50 [µM] | Structure (SMILES) |
| --- | --- | --- |
| ++++ (Emax>300) | 0.5 to 3 | CCCn1c(C)nc2cc(N3CCO[C@H](CC)C3)nc(-c3ccc(Cl)cc3F)c2c1=O [Example 187, (R)-5-(4-chloro-2-fluorophenyl)-7-(2-ethylmorpholino)-2-methyl-3-propylpyrido[4,3-d]pyrimidin-4(3H)-one] |
| ++++ (Emax>300) | 0.5 to 3 | Cc1nc2cc(N3CCO[C@H](c4cccc(OC(F)(F)F)c4)C3)nc(-c3ccc(Cl)cc3F)c2c(=O)n1C (single isomer, unassigned) [Example 97] |
| ++++ (Emax>300) | 0.05 to 0.5 | Cc1nc2cc(N3CCC[C@@H](c4cnn(C)c4)C3)nc(-c3ccc(Cl)cc3F)c2c(=O)n1C (single isomer, unassigned) [Example 99] |
| ++++ (Emax>300) | 0.05 to 0.5 | CCn1c(C(F)(F)F)nc2cc(N3CCO[C@@H](c4cnn(C)c4)C3)nc(-c3ccc(Cl)cc3F)c2c1=O [Example 144, 5-(4-chloro-2-fluorophenyl)-3-ethyl-7-((2S)-2-(1-methyl-1H-pyrazol-4-yl)-4-morpholinyl)-2-(trifluoromethyl)pyrido[4,3-d]pyrimidin-4(3H)-one] |
| +++ (Emax>200 and ≤300) | 3 to 100 | Cc1nc2cc([C@@H]3CCO[C@H](c4cnn(C)c4)C3)nc(-c3ccc(Cl)cc3F)c2c(=O)n1C (single isomer, unassigned) [Example 163] |
| +++ (Emax>200 and ≤300) | < 0.05 | Cc1nc2cc(N3CCO[C@@H](c4cnn(C)c4)C3)cc(-c3ccc(Cl)cc3F)c2c(=O)n1C [Example 3, 5-(4-chloro-2-fluorophenyl)-2,3-dimethyl-7-((2S)-2-(1-methyl-1H-pyrazol-4-yl)-4-morpholinyl)-4(3H)-quinazolinone] |
| ++++ (Emax>300) | 3 to 100 | Cc1nc2cc(N3CC[C@@H](c4cccnc4)C3)nc(-c3ccc(Cl)cc3F)c2c(=O)n1C [Example 260, (S)-5-(4-chloro-2-fluorophenyl)-2,3-dimethyl-7-(3-(pyridin-3-yl)pyrrolidin-1-yl)pyrido[4,3-d]pyrimidin-4(3H)-one] |
| ++++ (Emax>300) | 0.05 to 0.5 | Cc1noc([C@@H]2CCCN(c3cc4nc(C)n(C)c(=O)c4c(-c4ccc(Cl)cc4F)n3)C2)n1 (single isomer, unassigned) [Example 111] |
| ++++ (Emax>300) | 0.5 to 3 | CCCn1c(C)nc2cc(N3CCO[C@@H](CF)C3)nc(-c3ccc(Cl)cc3F)c2c1=O [Example 192, (R)-5-(4-chloro-2-fluorophenyl)-7-(2-(fluoromethyl)morpholino)-2-methyl-3-propylpyrido[4,3-d]pyrimidin-4(3H)-one] |
| ++++ (Emax>300) | 0.05 to 0.5 | Cc1nc2cc(N3CCOC(c4ccnnc4)C3)nc(-c3ccc(Cl)cc3F)c2c(=O)n1C (centres unmarked) [Example 50, 5-(4-chloro-2-fluorophenyl)-2,3-dimethyl-7-(2-(4-pyridazinyl)-4-morpholinyl)pyrido[4,3-d]pyrimidin-4(3H)-one] |
| +++ (Emax>200 and ≤300) | 0.5 to 3 | Cc1nc2cc(N3CCO[C@@](C)(c4cnn(C)c4)C3)nc(-c3ccc(Cl)cc3F)c2c(=O)n1C [Example 224, (S)-5-(4-chloro-2-fluorophenyl)-2,3-dimethyl-7-(2-methyl-2-(1-methyl-1H-pyrazol-4-yl)morpholino)pyrido[4,3-d]pyrimidin-4(3H)-one] |
| +++ (Emax>200 and ≤300) | 0.05 to 0.5 | Cc1nc2cc(N3CCc4ccnc(Cl)c4C3)nc(-c3ccc(Cl)cc3F)c2c(=O)n1C [Example 115, 7-(8-chloro-3,4-dihydro-2,7-naphthyridin-2(1H)-yl)-5-(4-chloro-2-fluorophenyl)-2,3-dimethylpyrido[4,3-d]pyrimidin-4(3H)-one] |
| +++ (Emax>200 and ≤300) | 0.5 to 3 | Cc1nc2cc(N3CCO[C@@H]([C@@H]4CCO4)C3)nc(-c3ccc(Cl)cc3F)c2c(=O)n1C [Example 270, 5-(4-chloro-2-fluorophenyl)-2,3-dimethyl-7-((R)-2-((S)-oxetan-2-yl)morpholino)pyrido[4,3-d]pyrimidin-4(3H)-one] |
| ++ (Emax>100 and ≤200) | 3 to 100 | Cc1c([C@H]2CN(c3cc4nc(C)n(C)c(=O)c4c(-c4ccc(Cl)cc4F)n3)CCO2)cnn1C (single isomer, unassigned) [Example 67] |
| ++++ (Emax>300) | 3 to 100 | Cc1nc2cc(N3CC[C@@H](C(F)(F)F)C3)nc(-c3ccc(Cl)cc3F)c2c(=O)n1C [Example 256, (R)-5-(4-chloro-2-fluorophenyl)-2,3-dimethyl-7-(3-(trifluoromethyl)pyrrolidin-1-yl)pyrido[4,3-d]pyrimidin-4(3H)-one] |
| ++ (Emax>100 and ≤200) | 3 to 100 | Cc1cnc2n1CCN(c1cc3nc(C)n(C)c(=O)c3c(-c3ccc(Cl)cc3F)n1)C2 [Example 223, 5-(4-chloro-2-fluorophenyl)-2,3-dimethyl-7-(3-methyl-5,6-dihydroimidazo[1,2-a]pyrazin-7(8H)-yl)pyrido[4,3-d]pyrimidin-4(3H)-one] |

| Emax | EC50 [µM] | Structure (SMILES) |
| --- | --- | --- |
| ++++ (Emax>300) | 0.5 to 3 | Cc1nc2cc(N3CCO[C@@H](c4noc(C5CC5)n4)C3)nc(-c3ccc(Cl)cc3F)c2c(=O)n1C (single isomer, unassigned) [Example 84] |
| ++++ (Emax>300) | 0.5 to 3 | Cc1nc2cc(N3CCOC(c4ccnn4C)C3)nc(-c3ccc(Cl)cc3F)c2c(=O)n1C (centres unmarked) [Example 52, 5-(4-chloro-2-fluorophenyl)-2,3-dimethyl-7-(2-(1-methyl-1H-pyrazol-5-yl)-4-morpholinyl)pyrido[4,3-d]pyrimidin-4(3H)-one] |
| ++++ (Emax>300) | 0.5 to 3 | CCCn1c(C)nc2cc(N3CCO[C@H](c4ccccc4)C3)nc(-c3ccc(Cl)cc3F)c2c1=O [Example 186, (R)-5-(4-chloro-2-fluorophenyl)-2-methyl-7-(2-phenylmorpholino)-3-propylpyrido[4,3-d]pyrimidin-4(3H)-one] |
| ++++ (Emax>300) | 0.05 to 0.5 | Cc1nc2cc(N3C[C@@H](C4CC4)O[C@@H](C)C3)nc(-c3ccc(Cl)cc3F)c2c(=O)n1C (single isomer, unassigned) [Example 37] |
| +++ (Emax>200 and ≤300) | 3 to 100 | CCc1nnc([C@@H]2CN(c3cc4nc(C)n(C)c(=O)c4c(-c4ccc(Cl)cc4F)n3)CCO2)[nH]1 [Example 241, (S)-5-(4-chloro-2-fluorophenyl)-7-(2-(5-ethyl-4H-1,2,4-triazol-3-yl)morpholino)-2,3-dimethylpyrido[4,3-d]pyrimidin-4(3H)-one] |
| ++++ (Emax>300) | 0.5 to 3 | Cc1nc2cc(N3CCO[C@](C)(c4cnn(C)c4)C3)nc(-c3ccc(Cl)cc3F)c2c(=O)n1C [Example 225, (R)-5-(4-chloro-2-fluorophenyl)-2,3-dimethyl-7-(2-methyl-2-(1-methyl-1H-pyrazol-4-yl)morpholino)pyrido[4,3-d]pyrimidin-4(3H)-one] |
| ++++ (Emax>300) | 0.5 to 3 | CCCn1c(C)nc2cc(N3CCO[C@@H](c4ccccc4)C3)nc(-c3ccc(Cl)cc3F)c2c1=O [Example 157, 5-(4-chloro-2-fluorophenyl)-2-methyl-7-((2S)-2-phenyl-4-morpholinyl)-3-propylpyrido[4,3-d]pyrimidin-4(3H)-one] |
| +++ (Emax>200 and ≤300) | 0.5 to 3 | Cc1nc2cc(N3CCO[C@@H](c4cnn(C)c4)C3)nc(C3CCCC3)c2c(=O)n1C [Example 160, 5-cyclopentyl-2,3-dimethyl-7-((2S)-2-(1-methyl-1H-pyrazol-4-yl)-4-morpholinyl)pyrido[4,3-d]pyrimidin-4(3H)-one] |
| +++ (Emax>200 and ≤300) | 3 to 100 | Cc1nc2cc(N3CCO[C@@H](c4cnn(C)c4)C3)nc(-c3cccc(F)c3F)c2c(=O)n1C [Example 227, (S)-5-(2,3-difluorophenyl)-2,3-dimethyl-7-(2-(1-methyl-1H-pyrazol-4-yl)morpholino)pyrido[4,3-d]pyrimidin-4(3H)-one] |
| +++ (Emax>200 and ≤300) | 0.5 to 3 | Cc1nc2cc(N3CCO[C@H](c4ccnc(Cl)c4)C3)nc(-c3ccc(Cl)cc3F)c2c(=O)n1C (single isomer, unassigned) [Example 88] |
| ++++ (Emax>300) | 0.05 to 0.5 | CCc1nnc(C2CN(c3cc4nc(C)n(C)c(=O)c4c(-c4ccc(Cl)cc4F)n3)CCO2)o1 (centres unmarked) [Example 70, 5-(4-chloro-2-fluorophenyl)-7-(2-(5-ethyl-1,3,4-oxadiazol-2-yl)-4-morpholinyl)-2,3-dimethylpyrido[4,3-d]pyrimidin-4(3H)-one] |
| + (Emax>45 and ≤100) | 3 to 100 | CCCn1c(C)nc2cc(N3CCO[C@H](c4cnn(C)c4)C3)nc(-c3ncc(Cl)cc3C)c2c1=O [Example 195, (R)-5-(5-chloro-3-methylpyridin-2-yl)-2-methyl-7-(2-(1-methyl-1H-pyrazol-4-yl)morpholino)-3-propylpyrido[4,3-d]pyrimidin-4(3H)-one] |
| ++++ (Emax>300) | 0.05 to 0.5 | Cc1nc2cc(N3CCO[C@H](c4cccnc4)C3)nc(-c3ccc(Cl)cc3F)c2c(=O)n1C [Example 210, (R)-5-(4-chloro-2-fluorophenyl)-2,3-dimethyl-7-(2-(pyridin-3-yl)morpholino)pyrido[4,3-d]pyrimidin-4(3H)-one] |
| ++++ (Emax>300) | 0.05 to 0.5 | Cc1nc2cc(N3C[C@H](C)O[C@@H](c4ccsc4)C3)nc(-c3ccc(Cl)cc3F)c2c(=O)n1C (single isomer, unassigned) [Example 71] |
| +++ (Emax>200 and ≤300) | 3 to 100 | Cc1nc2cc(N3CCC[C@@H](N4CCC4)C3)nc(-c3ccc(Cl)cc3F)c2c(=O)n1C [Example 246, (R)-7-(3-(azetidin-1-yl)piperidin-1-yl)-5-(4-chloro-2-fluorophenyl)-2,3-dimethylpyrido[4,3-d]pyrimidin-4(3H)-one] |
